According to patent publication US20210221866A1, “PROTEASE-RESISTANT LIPIDATED GLP-1 ANALOGS” (MEDIMMUNE LIMITED, priority 2015, published 2021):
Read-outs that look alike come from different tables or passages of the source. Numbered stars: 1 amine (or outer) side, 2 acyl side, 3 side chain; on linkers, the order of the positions; unused ones are H or OH. Square brackets hold non-standard residues; d marks the D form. Side chains are listed from the residue outwards. Peptide text beside a SMILES is read from it. * marks the point of attachment. γGlu = O=C(O)[C@H](CCC(=O)[*:2])N[*:1]; αMeF = C[C@](N)(Cc1ccccc1)C(=O)O; αMeK = C[C@](N)(CCCCN)C(=O)O; Lauroyl = CCCCCCCCCCCC(=O)*; αMeS = C[C@](N)(CO)C(=O)O; AEEA = NCCOCCOCC(=O)O; Aib = CC(C)(N)C(=O)O

Legend:
in vitro = conditions: isolated enzyme chymotrypsin, pH 7.8
Experimental: (§3) Ratio enzyme (units):peptide (μmoles) ˜1:33. […] Ratio enzyme (units):peptide (μmoles) ˜1:2.5.
(§4) 15 μL aliquots (˜15 μg initial peptide) of the peptide-enzyme mixture are periodically withdrawn (t=0, 30 mins, 1 hr, 2 hr, 4 hr, 8 hr, 24 hr) and quenched immediately by addition to an equal volume (15 μL) of 5% TFA (v/v) in 1:1 water/acetonitrile to arrest proteolytic activity. 20 μL aliquots (˜10 μg initial peptide) are analysed by LC/MS and/or analytical RP-HPLC as follows: LC/MS method: Agilent Polaris C8-A column (4.6×100 mm, 3 micron) elutes with a linear binary gradient of 10-90% MeCN (0.1% TFA v/v) in water (0.1% TFA v/v) over 30 mins at 1.5 mL min^−1 at ambient temperature with detection by both UV absorption at 210 nm and ionization using a Waters 3100 mass detector (ESI^+ mode). Peptide fragments deriving from enzymatic hydrolysis are identified by molecular weight, allowing location of the site of cleavage. Analytical RP-HPLC method: Agilent Polaris C8-A column (4.6×100 mm, 3 micron) elutes with a linear binary gradient of 10-90% MeCN (0.1% TFA v/v) in water (0.1% TFA v/v) over either 10 or 15 mins at 1.5 mL min^−1 at 40° C. with detection by UV absorption at 210 nm. Manual integration (AUC) allows estimation of remaining intact peptide over the time course of the experiment.
(§5) 25 μL aliquots (˜6 μg initial peptide) are analysed by LC/MS and/or analytical RP-HPLC as follows: LC/MS method: Agilent Polaris C8-A column (4.6×100 mm, 3 micron) elutes with a linear binary gradient of 10-90% MeCN (0.1% TFA v/v) in water (0.1% TFA v/v) over 30 mins at 1.5 mL min^−1 at ambient temperature with detection by both UV absorption at 210 nm and ionization using a Waters 3100 mass detector (ESI±mode). Peptide fragments deriving from enzymatic hydrolysis are identified by molecular weight, allowing location of the site of cleavage. Analytical RP-HPLC method: Agilent Polaris C8-A column (4.6×100 mm, 3 micron) elutes with a linear binary gradient of 10-90% MeCN (0.1% TFA v/v) in water (0.1% TFA v/v) over either 10 or 15 mins at 1.5 mL min^−1 at 40° C. with detection by UV absorption at 210 nm. Manual integration (AUC) allows estimation of remaining intact peptide over the time course of the experiment.

recombinant Neprilysin = target: T1, recombinant Neprilysin (Homo sapiens, UniProt P08473); assay: Proteolytic resistance to neprilysin (% remaining peptide, RP-HPLC AUC); assay type: in vitro ADME; conditions: t = 0 (baseline); 37° C., pH 8.3; enzyme:peptide ~1:33 for non-lipidated, ~1:2.5 for lipidated peptides
T1 construct: purchased R&D Systems 1182-ZNC-010

[1] = target: porcine pancreatic trypsin (Sus scrofa, UniProt P00761); assay: Proteolytic resistance to trypsin (% remaining intact peptide, RP-HPLC AUC); assay type: in vitro ADME; conditions: t = 0; 37° C., pH 7.8
Experimental: Trypsin: Lyophilized porcine pancreatic trypsin (Sigma: T1426) was reconstituted to afford a solution of 100 μg/mL (˜300 units/mL) in assay buffer (50 mM Tris, 10 mM CaCl2), 150 mM NaCl, 1 mM HCl, adjusted to pH 7.8) to give the enzyme stock solution. […] Ratio enzyme (units):peptide (μmoles) ˜1:11. […] Ratio enzyme (units):peptide (μ moles) ˜1.2:1.
Lyophilized porcine pancreatic trypsin (Sigma: T7409) was reconstituted to 200 μg/mL (˜300 units/mL) in assay buffer (50 mM Tris, 10 mM CaCl2), 150 mM NaCl, 1 mM HCl, adjusted to pH 7.8) to give the enzyme stock solution. […] 15 μL aliquots (˜15 μg initial peptide) of the peptide-enzyme mixture were periodically withdrawn (t=0, 30 mins, 1 hr, 2 hr, 4 hr, 8 hr, 24 hr) and quenched immediately by addition to an equal volume (15 μL) of 5% TFA (v/v) in 1:1 water/acetonitrile to arrest proteolytic activity. 20 μL aliquots (˜10 μg initial peptide) were analysed by LC/MS and/or analytical RP-HPLC as follows: LC/MS method: Agilent Polaris C8-A column (4.6×100 mm, 3 micron) eluted with a linear binary gradient of 10-90% MeCN (0.1% TFA v/v) in water (0.1% TFA v/v) over 30 mins at 1.5 mL min^−1 at ambient temperature with detection by both UV absorption at 210 nm and ionization using a Waters 3100 mass detector (ESI^+ mode). Peptide fragments deriving from enzymatic hydrolysis were identified by molecular weight, allowing location of the site of cleavage. Analytical RP-HPLC method: Agilent Polaris C8-A column (4.6×100 mm, 3 micron) eluted with a linear binary gradient of 10-90% MeCN (0.1% TFA v/v) in water (0.1% TFA v/v) over either 10 or 15 mins at 1.5 mL min^−1 at 40° C. with detection by UV absorption at 210 nm. Manual integration (AUC) allowed estimation of remaining intact peptide over the time course of the experiment.
Lyophilized porcine pancreatic trypsin (Sigma: T7409) was reconstituted to 200 μg/mL (˜300 units/mL) in assay buffer (50 mM Tris, 10 mM CaCl2), 150 mM NaCl, 1 mM HCl, adjusted to pH 7.8) to give the enzyme stock solution. […] 25 μL aliquots (˜17 μg initial peptide) of the peptide-enzyme mixture were periodically withdrawn (t=0, 30 mins, 1 hr, 2 hr, 4 hr, 8 hr, 24 hr) and quenched immediately by addition to an equal volume (25 μL) of 5% TFA (v/v) in 1:1 water/acetonitrile to arrest proteolytic activity. 25 μL aliquots (˜8 μg initial peptide) were analysed by LC/MS and/or analytical RP-HPLC as follows: LC/MS method: Agilent Polaris C8-A column (4.6×100 mm, 3 micron) eluted with a linear binary gradient of 10-90% MeCN (0.1% TFA v/v) in water (0.1% TFA v/v) over 30 mins at 1.5 mL min^−1 at ambient temperature with detection by both UV absorption at 210 nm and ionization using a Waters 3100 mass detector (ESI^+ mode). Peptide fragments deriving from enzymatic hydrolysis were identified by molecular weight, allowing location of the site of cleavage. Analytical RP-HPLC method: Agilent Polaris C8-A column (4.6×100 mm, 3 micron) eluted with a linear binary gradient of 10-90% MeCN (0.1% TFA v/v) in water (0.1% TFA v/v) over either 10 or 15 mins at 1.5 mL min^−1 at 40° C. with detection by UV absorption at 210 nm. Manual integration (AUC) allowed estimation of remaining intact peptide over the time course of the experiment.

[2] = test system: FASSIF/Pancreatin® activated with 100 μg/mL human enterokinase; assay: Proteolytic resistance to FASSIF/Pancreatin following full zymogen activation with enterokinase; assay type: in vitro ADME; conditions: t = 0; 37° C.
Experimental: A fresh suspension of FASSIF/P (Fasted-State Simulated Intestinal Fluid+USP Pancreatin®) was prepared according to that described by Galia, Nicolaides, Hörter, Lobenberg, Reppas and Dressman: Pharm. […] To the resulting preparation was added human enterokinase (100 μg/mL) to ensure the potential for full zymogen activity of the mixture which was used immediately without storage. Peptides for evaluation (1.0 mg, ˜250 nmoles) were initially dissolved in pre-warmed FASSIF without Pancreatin® (200 μL) to which was added pre-warmed fresh FASSIF/Pancreatin® ([…]) to initiate potential digestion. Following momentary vortexing of the Eppendorf reaction tube the mixture was incubated at 37° C. in a thermostatic waterbath for the duration of the experiment. 25 μL aliquots of the co-incubated peptide-enzyme mixture were periodically withdrawn (t=0, 5 m, 10 m, 15 m, 30 m, 1 h, 2 h) and quenched immediately by addition to a solution of 10% TFA in 1:1 water/acetonitrile (75 μL) to arrest proteolytic activity.

[3] = Proteolytic resistance to fasted-state simulated intestinal fluid (FASSIF/Pancreatin); assay type: in vitro ADME; conditions: 37° C., read-out: Percentage remaining intact peptide (AUC by RP-HPLC) upon incubation with fasted-state simulated intestinal fluid (FASSIF/P); for remaining at 10 min, […]: t = 10 m; for remaining at 0.25 h, […]: t = 15 m; for remaining at 0.5 h, […]: t = 30 m; for remaining at 2 h, […]: t = 2 h
Experimental: (§1) A fresh suspension of FASSIF/P (Fasted-State Simulated Intestinal Fluid+USP Pancreatin®) was prepared according to that described by Galia, Nicolaides, Hörter, Lobenberg, Reppas and Dressman: Pharm. Res. 15 (1998) 698-705. The resulting preparation is proteolytically equivalent to ˜375 units/mL (375 kU/L) and was used immediately without storage. Peptides for evaluation (1.0 mg, ˜250 nmoles) were initially dissolved in pre-warmed FASSIF without Pancreatin® (200 μL) to which was added pre-warmed fresh FASSIF/Pancreatin® (100 μL) to initiate potential digestion. Following momentary vortexing of the Eppendorf reaction tube the mixture was incubated at 37° C. in a thermostatic waterbath for the duration of the experiment. 25 μL aliquots of the co-incubated peptide-enzyme mixture were periodically withdrawn (t=0, 5 m, 10 m, 15 m, 30 m, 1 h, 2 h) and quenched immediately by addition to a solution of 10% TFA in 1:1 water/acetonitrile (75 μL) to arrest proteolytic activity.

[4] = test system: FASSIF/P (Fasted-State Simulated Intestinal Fluid+USP Pancreatin®); assay: as above; assay type: in vitro ADME; conditions: t = 0; 37° C.
Experimental: as §1

[5] = target: T2, porcine pancreatic pepsin (Sus scrofa, UniProt P00791); assay: Proteolytic resistance to pepsin (% remaining intact peptide, RP-HPLC AUC); assay type: in vitro ADME; conditions: t = 0; 37° C., pH 2.0
T2 construct: purchased Sigma P7012

[6] = target: T3, human glucose-dependent insulinotropic peptide receptor (GIPR) (Homo sapiens, UniProt P48546); assay: cAMP assay, human GIPR cells; assay type: cell-based; conditions: Table 9, bis-lipidated peptides
T3 construct: expressed in transfected cells; host or cells: HEK293 cells or CHO cells
T3 sequence (P48546 22-466): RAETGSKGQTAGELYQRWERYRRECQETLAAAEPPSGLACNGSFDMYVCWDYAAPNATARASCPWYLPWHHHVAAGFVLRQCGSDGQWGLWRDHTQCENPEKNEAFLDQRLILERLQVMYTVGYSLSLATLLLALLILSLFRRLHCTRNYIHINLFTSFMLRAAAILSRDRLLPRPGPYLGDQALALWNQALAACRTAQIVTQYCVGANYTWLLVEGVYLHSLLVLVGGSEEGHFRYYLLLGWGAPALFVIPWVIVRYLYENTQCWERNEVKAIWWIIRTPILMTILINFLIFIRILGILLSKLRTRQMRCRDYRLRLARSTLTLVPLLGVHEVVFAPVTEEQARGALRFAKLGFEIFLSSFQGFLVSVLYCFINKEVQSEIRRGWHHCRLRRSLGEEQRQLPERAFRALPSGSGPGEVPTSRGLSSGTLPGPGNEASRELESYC
How it was run: (§2)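 Peptide-stimulated cAMP measured by two-step HTRF after a 30 min room-temperature incubation with receptor-expressing cells (hGLP-1R, hGIPR at 1×10^5 cells/ml; hGCGR at 2×10^5 cells/ml). Duplicate dilutions; EC50 from 4-parameter logistic fit of % Delta F.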

[7] = Proteolytic resistance to α-chymotrypsin (% remaining intact peptide, RP-HPLC AUC); conditions: recombinant α-chymotrypsin in assay buffer, pH 7.8
Experimental: as §3, §4, §5

[8] = test system: recombinant α-chymotrypsin; assay: as above; conditions: t = 0; 37° C., pH 7.8
Experimental: as §3, §4, §5

[9] = target: T4, human glucagon receptor (GCGR) (Homo sapiens, UniProt P47871); assay: cAMP assay, human GCGR cells; assay type: cell-based; conditions: Table 9, bis-lipidated peptides
T4 construct: expressed in transfected cells; host or cells: HEK293 cells or CHO cells
How it was run: as §2

[10] = target: T5, human GLP-1 receptor (GLP-1R) (Homo sapiens, UniProt P43220); assay: cAMP assay, human GLP-1R cells; assay type: cell-based; conditions: Table 9, bis-lipidated peptides; mean of n1 and n2; read-out: Primary assay EC50 Mean pM GLP-1R
T5 construct: expressed in transfected cells; host or cells: HEK293 cells or CHO cells
How it was run: as §2

GLP-1R (INS1e cells) = target: T6, GLP-1R (INS1e cells) (Rattus norvegicus, UniProt P32301); assay: INS1e assay, cAMP activity at GLP-1R; assay type: cell-based; conditions: Table 10, bis-lipidated peptides, mean of n1 and n2, read-out: INS1e assay EC50 Mean pM GLP-1R
T6 construct: endogenous in cells; host or cells: INS1e cells
T6 sequence (P32301 22-463): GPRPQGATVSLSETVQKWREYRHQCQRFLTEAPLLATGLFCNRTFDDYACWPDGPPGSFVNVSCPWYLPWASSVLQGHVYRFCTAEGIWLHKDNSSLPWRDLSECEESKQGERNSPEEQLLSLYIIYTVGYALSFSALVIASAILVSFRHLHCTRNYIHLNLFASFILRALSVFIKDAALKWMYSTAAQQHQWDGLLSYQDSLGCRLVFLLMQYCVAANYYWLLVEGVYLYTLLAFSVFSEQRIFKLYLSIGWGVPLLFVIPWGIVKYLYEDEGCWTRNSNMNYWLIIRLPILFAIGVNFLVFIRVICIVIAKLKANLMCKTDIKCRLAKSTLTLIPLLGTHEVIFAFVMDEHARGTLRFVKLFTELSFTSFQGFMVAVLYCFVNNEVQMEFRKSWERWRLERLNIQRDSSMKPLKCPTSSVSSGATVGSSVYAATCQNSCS

[11] = first replicate, read-out: Primary assay EC50 GIP-R (n1)
[12] = second replicate, read-out: Primary assay EC50 GIP-R (n2)
[13] = first replicate, read-out: Primary assay EC50 Gluc-R (n1)
[14] = second replicate, read-out: Primary assay EC50 Gluc-R (n2)

T4 sequence (P47871 26-477): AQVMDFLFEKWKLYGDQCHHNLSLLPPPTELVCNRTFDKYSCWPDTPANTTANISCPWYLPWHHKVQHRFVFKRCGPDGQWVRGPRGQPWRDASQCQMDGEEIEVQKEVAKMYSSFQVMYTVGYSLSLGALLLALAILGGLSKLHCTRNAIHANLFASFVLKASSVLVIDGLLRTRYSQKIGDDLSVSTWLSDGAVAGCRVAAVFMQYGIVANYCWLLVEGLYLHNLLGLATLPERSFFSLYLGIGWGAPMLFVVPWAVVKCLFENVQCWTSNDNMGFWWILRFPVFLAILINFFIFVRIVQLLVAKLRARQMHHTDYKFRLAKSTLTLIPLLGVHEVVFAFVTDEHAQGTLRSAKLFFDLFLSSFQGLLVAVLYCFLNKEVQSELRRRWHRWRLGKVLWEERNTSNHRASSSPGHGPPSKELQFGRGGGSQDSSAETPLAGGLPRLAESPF
T1 sequence (P08473 whole entry): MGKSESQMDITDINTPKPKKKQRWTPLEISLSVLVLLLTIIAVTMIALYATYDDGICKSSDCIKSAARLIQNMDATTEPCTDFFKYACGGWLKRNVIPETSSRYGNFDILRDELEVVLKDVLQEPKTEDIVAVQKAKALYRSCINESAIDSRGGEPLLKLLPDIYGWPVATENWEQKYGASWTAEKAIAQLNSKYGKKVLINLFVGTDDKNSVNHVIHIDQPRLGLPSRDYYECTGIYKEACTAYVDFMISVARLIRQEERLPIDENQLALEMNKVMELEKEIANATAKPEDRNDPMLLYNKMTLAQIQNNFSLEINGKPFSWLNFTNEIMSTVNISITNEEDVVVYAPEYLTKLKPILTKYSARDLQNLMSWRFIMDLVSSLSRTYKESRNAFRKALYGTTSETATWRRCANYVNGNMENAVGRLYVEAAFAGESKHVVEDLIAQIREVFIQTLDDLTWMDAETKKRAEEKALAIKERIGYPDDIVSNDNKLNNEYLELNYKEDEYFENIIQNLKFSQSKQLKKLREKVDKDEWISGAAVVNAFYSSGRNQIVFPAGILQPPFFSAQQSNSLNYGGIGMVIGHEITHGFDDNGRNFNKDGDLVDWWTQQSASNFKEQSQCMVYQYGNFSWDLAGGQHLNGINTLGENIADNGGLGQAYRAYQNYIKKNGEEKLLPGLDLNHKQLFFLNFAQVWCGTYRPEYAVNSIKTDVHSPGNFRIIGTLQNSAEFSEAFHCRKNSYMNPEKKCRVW
T5 sequence (P43220 24-463): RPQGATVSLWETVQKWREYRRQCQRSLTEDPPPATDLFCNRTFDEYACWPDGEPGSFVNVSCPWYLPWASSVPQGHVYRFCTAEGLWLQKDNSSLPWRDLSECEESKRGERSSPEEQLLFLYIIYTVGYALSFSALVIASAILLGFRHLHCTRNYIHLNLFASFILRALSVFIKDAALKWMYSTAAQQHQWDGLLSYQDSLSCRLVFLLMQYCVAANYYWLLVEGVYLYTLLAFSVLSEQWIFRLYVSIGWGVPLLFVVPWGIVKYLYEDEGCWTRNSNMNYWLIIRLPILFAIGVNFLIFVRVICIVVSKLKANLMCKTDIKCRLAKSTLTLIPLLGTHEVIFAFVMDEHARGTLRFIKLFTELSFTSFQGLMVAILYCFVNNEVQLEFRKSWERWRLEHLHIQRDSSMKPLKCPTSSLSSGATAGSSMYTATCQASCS
T2 sequence (P00791 60-385): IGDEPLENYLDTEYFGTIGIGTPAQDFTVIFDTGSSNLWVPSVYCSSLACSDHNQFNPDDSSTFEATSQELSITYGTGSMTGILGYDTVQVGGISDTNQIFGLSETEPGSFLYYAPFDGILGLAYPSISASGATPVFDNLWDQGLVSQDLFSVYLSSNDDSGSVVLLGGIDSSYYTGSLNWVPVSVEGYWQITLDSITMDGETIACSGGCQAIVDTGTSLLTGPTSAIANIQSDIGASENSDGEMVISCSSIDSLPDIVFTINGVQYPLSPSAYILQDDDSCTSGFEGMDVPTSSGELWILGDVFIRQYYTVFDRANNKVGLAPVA
Chain of porcine pancreatic trypsin (P00761 9-231): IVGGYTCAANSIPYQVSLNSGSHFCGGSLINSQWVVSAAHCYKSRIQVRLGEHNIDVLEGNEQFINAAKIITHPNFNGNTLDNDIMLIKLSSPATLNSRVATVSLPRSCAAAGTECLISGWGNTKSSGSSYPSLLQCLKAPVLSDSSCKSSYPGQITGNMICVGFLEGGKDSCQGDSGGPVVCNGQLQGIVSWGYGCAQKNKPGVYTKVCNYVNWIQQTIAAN

Row | Percentage remaining intact peptide (AUC by RP-HPLC) upon incubation with FASSIF activated with 100 μg/mL enterokinase [2] | remaining at 10 min, […] [3] | remaining at 0.25 h, […] [3] | remaining at 0.5 h, […] [3] | remaining at 2 h, […] [3] | Percentage remaining intact peptide (AUC by RP-HPLC) upon incubation with fasted-state simulated intestinal fluid (FASSIF/P) [4] | EC50 [6, 11] | EC50 [6, 12] | EC50 [9, 13] | EC50 [9, 14] | SMILES | further results
1 | – | – | – | – | – | – | – | – | – | – | CCCCCCCCCCCCCCCC(=O)N[C@@H](CCC(=O)NCCCC[C@H](NC(=O)[C@H](C)NC(=O)[C@H](C)NC(=O)[C@H](CCC(N)=O)NC(=O)CNC(=O)[C@H](CCC(=O)O)NC(=O)[C@H](CC(C)C)NC(=O)[C@H](Cc1ccc(O)cc1)NC(=O)[C@H](CO)NC(=O)[C@H](CO)NC(=O)[C@@H](NC(=O)[C@H](CC(=O)O)NC(=O)[C@H](CO)NC(=O)[C@@H](NC(=O)[C@H](Cc1ccccc1)NC(=O)[C@@H](NC(=O)CNC(=O)[C@H](CCC(=O)O)NC(=O)[C@H](C)NC(=O)[C@@H](N)Cc1cnc[nH]1)[C@@H](C)O)[C@@H](C)O)C(C)C)C(=O)N[C@@H](CCC(=O)O)C(=O)N[C@@H](Cc1ccccc1)C(=O)N[C@H](C(=O)N[C@@H](C)C(=O)N[C@@H](Cc1c[nH]c2ccccc12)C(=O)N[C@@H](CC(C)C)C(=O)N[C@H](C(=O)N[C@@H](CCCNC(=N)N)C(=O)NCC(=O)N[C@@H](CCCNC(=N)N)C(=O)NCC(=O)O)C(C)C)[C@@H](C)CC)C(=O)O [Liraglutide] | remaining at 1 h (in vitro): 95.6%
2 | 100% | 85.6% | 76.8% | 57.6% | 7.8% | 100% | ≥ 21.5 nM | ≥ 21.5 nM | ≥ 21.5 nM | ≥ 21.5 nM | CCCCCCCCCCCC(=O)N[C@@H](CCC(=O)NCCOCCOCC(=O)NCCOCCOCC(=O)NCCCC[C@H](NC(=O)[C@H](C)NC(=O)[C@@H](NC(=O)[C@H](Cc1ccccc1)NC(=O)[C@H](CCC(=O)O)NC(=O)[C@](C)(CCCCN)NC(=O)[C@H](C)NC(=O)[C@H](C)NC(=O)[C@H](CCC(=O)O)NC(=O)CNC(=O)[C@H](CCC(=O)O)NC(=O)[C@H](CC(C)C)NC(=O)[C@H](CCCCNC(=O)COCCOCCNC(=O)COCCOCCNC(=O)CC[C@H](NC(=O)CCCCCCCCCCC)C(=O)O)NC(=O)[C@H](CO)NC(=O)[C@](C)(CO)NC(=O)[C@@H](NC(=O)[C@H](CC(=O)O)NC(=O)[C@H](CO)NC(=O)[C@@H](NC(=O)[C@](C)(Cc1ccccc1)NC(=O)[C@H](CO)NC(=O)CNC(=O)[C@H](CCC(=O)O)NC(=O)C(C)(C)NC(=O)[C@@H](N)Cc1c[nH]cn1)[C@@H](C)O)C(C)C)[C@@H](C)CC)C(=O)N[C@H](C(=O)N[C@H](C(=O)N[C@@H](CCC(=O)O)C(=O)NCC(=O)NCC(N)=O)C(C)C)C(C)C)C(=O)O [compound 263] (H-H[Aib]EGS[αMeF]TSDV[αMeS]SK([AEEA-AEEA-γGlu-Lauroyl])LEGEAA[αMeK]EFIAK([AEEA-AEEA-γGlu-Lauroyl])VVEGG-NH2) | Percentage remaining peptide (AUC at specified time-point by RP-HPLC) upon incubation with neprilysin, t = 0 (recombinant Neprilysin): 100%; Percentage remaining intact peptide (AUC by RP-HPLC) upon incubation with trypsin [1]: 100.0%; Percentage remaining intact peptide (AUC by RP-HPLC) upon incubation with pepsin [5]: 100%; remaining at 0.5 h [7]: 88.1%; remaining at 1 h [7]: 93.9%; remaining at 4 h [7]: 93.5%; remaining at 8 h [7]: 95%; remaining at 24 h [7]: 92.3%; Percentage remaining intact peptide (AUC by RP-HPLC) upon incubation with α-chymotrypsin [8]: 100%
3 | 100% | 99% | 99.4% | 95.7% | 60.4% | 100% | ≥ 21.5 nM | ≥ 21.5 nM | ≥ 21.5 nM | ≥ 21.5 nM | CCCCCCCCCCCC(=O)N[C@@H](CCC(=O)NCCOCCOCC(=O)NCCOCCOCC(=O)NCCCC[C@H](NC(=O)[C@H](C)NC(=O)[C@@H](NC(=O)[C@](C)(Cc1ccccc1)NC(=O)[C@H](CCC(=O)O)NC(=O)[C@](C)(CCCCN)NC(=O)[C@H](C)NC(=O)[C@H](C)NC(=O)[C@H](CCC(=O)O)NC(=O)CNC(=O)[C@H](CCC(=O)O)NC(=O)[C@H](CC(C)C)NC(=O)[C@H](CCCCNC(=O)COCCOCCNC(=O)COCCOCCNC(=O)CC[C@H](NC(=O)CCCCCCCCCCC)C(=O)O)NC(=O)[C@H](CO)NC(=O)[C@](C)(CO)NC(=O)[C@@H](NC(=O)[C@H](CC(=O)O)NC(=O)[C@H](CO)NC(=O)[C@@H](NC(=O)[C@](C)(Cc1ccccc1)NC(=O)[C@H](CO)NC(=O)CNC(=O)[C@H](CCC(=O)O)NC(=O)C(C)(C)NC(=O)[C@@H](N)Cc1c[nH]cn1)[C@@H](C)O)C(C)C)[C@@H](C)CC)C(=O)N[C@H](C(=O)N[C@H](C(=O)N[C@@H](CCC(=O)O)C(=O)NCC(=O)NCC(N)=O)C(C)C)C(C)C)C(=O)O [compound 405] (H-H[Aib]EGS[αMeF]TSDV[αMeS]SK([AEEA-AEEA-γGlu-Lauroyl])LEGEAA[αMeK]E[αMeF]IAK([AEEA-AEEA-γGlu-Lauroyl])VVEGG-NH2; N-terminus assumed) | EC50 [10]: 3.9 pM; EC50 (GLP-1R (INS1e cells)): 116 pM; remaining at 5 min, […] ([3]; t = 5 m): 99.5%; remaining at 1 h, […] ([3]; t = 1 h): 88.7%
